Assay results: patent publication US20190010533A1, “METHODS FOR SCREENING AND SELECTING TARGET AGENTS FROM MOLECULAR DATABASES” (The Methodist Hospital System, priority 2017, published 2019)
Where a name gives a salt, the structure may show the parent alone. Read-outs that look alike come from different tables or passages of the source.

Tests used:
primary neurons = experiment: time-lapse synaptogenesis assay (FM1-43 staining, KCl de-staining); format: cell-based
Description: FIG. 6. Time-lapse synaptogenesis assay identifies pre-synaptic hyperactivity caused by thiorphan's treatments.
A high content screening (HCS) is carried out on existing 3,000 known drugs and compounds to systematically characterize the effects of known drugs or bioactive compounds on the Parkinson's Disease (PD) induced pluripotent stem (iPS) cell model, with the aim to identify effective hits that can be validated in PD mouse models. […] Cells were stained with FM1-43 (FIG. 6A) and de-stained by KCl stimulation (FIG. 6B). Time-lapse imaging was carried out from the dye uptake until the synapses were completely de-stained. […] A similar assay is applied in iPS cells as well as neuron cell models for PD. In addition to using the prevalence of synaptogenesis as the main readout for the high content screening (HCS), the heterogeneous nature of stem cell differentiation is addressed by identifying and quantifying the prevalence of novel phenotypes other than stem cell and synaptogenesis based on morphological features. Such consideration of cell population heterogeneity brings deeper insight in the HCS and can help identify potential compounds that are causing specific type of differentiations benefiting cure of PD.

canonical pathways = experiment: RNA-seq canonical pathway analysis of 3D AD #A5 cultures treated with anti-Aβ drugs; format: cell-based, human; conditions: AD #A5 DMSO vs treated
Description: FIG. 7. […] Pearson correlations of global gene expression profile among 2D undifferentiated control ReN cells, 3D control (G2#B2on), AD #A5 (#A5, moderate Aβ42/40 ratio ˜0.2), AD #D4 (#D4, high Aβ42/40 ratio, ˜1.4), and AD #H10 (#H10, extra high Aβ42/40 ratio, ˜1.7). Units are log CPM. b. Volcano plots show −log10(FDR) vs log FC distribution for G2#B2 (control) vs AD #A5 (AD), AD #A5 DMSO vs AD #A5 BSI (BACE inhibitor, Ly2886721), and AD #A5 DMSO vs AD #A5 GSM (gamma secretase modulator, SGSM15606) transcriptomic signatures. […] Canonical pathway analysis between G2#B2 and AD #A5 (Ingenuity pathway analysis, Qiagen). d. Analysis of common canonical pathways. The pathway analysis among G2#B2 vs AD #A5, AD #A5 DMSO vs AD #A5 BSI, and AD #A5 DMSO vs AD #A5 GSM. Activation z-scores indicate that majority of decreased pathways in AD #A5 are restored by BSI and/or GSM treatments. e. […]
To examine the multiple single-clonal AD models, unbiased whole genome RNA-seq analyses were performed to compare gene expression profiles among the clonal AD models with different Aβ42/40 ratios, as compared to control 3D cultures and undifferentiated 2D control cells (FIG. 7a-d). […] Differential gene expression profile of 3D AD cultures were analyzed after treating anti-Aβ drugs (BACE1 inhibitor, Ly2886721; Gamma-secretase modulator (GSM), GSM15606) (FIG. 7b). […]

pTau [1] = experiment: primary high-content screening (HCS) for inhibition of pTau accumulation in neuron cells in 3D culture; format: cell-based
Description: This workflow to identify the mechanisms underlying those screening hits can be used to effectively discover more compounds that can generate similar phenotype. As a proof of concept, the transcriptomic profiles hosted by the Broad Institute'[…] warehouse^28-30 through the NIH LINCS program were used in the initial study.

pTau [2] = experiment: cell-based validation in reformatted high content version of AD-in-a-dish model; conditions: 26 predicted compounds tested
Description: FIG. 2. Pilot SMART screen used 20 primary hits to identify 5 new compound hits that inhibit pTau (phospho-Tau or phosphorylated Tau).
Twenty-two of the 38 aforementioned screening hits had LINCS data covering the perturbation profiles for at least 4 cell lines. From these twenty-two hits, 2 were eliminated because no known drug candidates ranked high enough based on transcriptomic similarities to these two primary hits; and 3 others were removed upon inspection of the compound properties of the predictions they made, i.e., the predicted drugs may be toxic or unfit for systematic use. Thus, the 17 primary hits were used to initiate a pilot run using the SMART framework. The cMAP algorithm^7 was used to rank all compounds in the LINCSCloud, based on the similarity of transcriptomic profiles to each of the 17 primary hits. If any compound was determined by cMAP algorithm to have a similarity score larger than 90 to at least one of the primary hits, it was identified as a hit candidate. After filtering based on pharmacology features, 85 candidates predicted by 17 primary hits remained; 26 of these 85 compounds were purchased for validation after analysis for pharmacology and medical practice features.

[3] = test system: insoluble p-tau species (pSer396/Ser404, pThr181); experiment: Western blot analysis in 3D AD models with high Aβ42/40 ratios; format: cell-based, human; conditions: various concentrations
Description: (§1) FIG. 9. Validation of primary hit candidates. Primary hit candidates were confirmed using Western blot analysis (a) and quantitative immunofluorescence staining in 3D AD models with high Aβ42/40 ratios (#HReN and #A4H1) (b). PHF1 pSer396/Ser404 tau antibody was used to detect changes in phospho tau in 3D AD #HReN cells treated with DMSO vehicle, ebselen, or leflunomide.
(§2) In addition to MSD Mesoscale ELISA shown in FIG. 8, quantitative Western blot and immunofluorescence analysis were used to validate candidate drugs. […] Ebselen and leflunomide are compounds screened from original HCS screening of […] biologically active/FDA-approved drug library. […] Moreover, quantitative immunofluorescence staining was used to analyze p-tau changes after treating these compounds.

p-tau (pSer396/Ser404) = experiment: quantitative immunofluorescence staining in 3D AD models; format: cell-based, human; conditions: 5 μM for 3 weeks
Description: as §1, §2

3D AD models = experiment: cellular viability and neurite networks in the immunofluorescence study; format: cell-based, human; conditions: 5 μM for 3 weeks
Description: as §2

genes and pathways = experiment: whole genome RNAseq analysis after compound treatment versus control; format: cell-based
Description: FIG. 10A-10B. […] PPI information was extracted from STRING database version 10.5 with the cutoff for confidence score at 0.4.
Given ebselen and leflunomide in FIG. 9, an unbiased whole genome RNAseq analysis was used to obtain transcriptomic profiles after the treatment of each compound and compare them separately to control conditions. For both treatments, a subset of genes and pathways show significant change (|log FC|>1.5) in the same direction over control condition. […] These 22 genes have 102 PPI pairs among them, and there are 7 genes directly connected to APP (coding Aβ) or MAPT (coding Tau).
It's worth noting that the enrichment of immune and inflammatory related pathway changes is consistent with the characteristics of the 3D cell model, as this system contains astrocytes, which is one of the brain innate immune cells. […] Also, neuroinflammatory pathways are highly unregulated in high Abeta42/40 lines (D4 and H10) as compared to A5 (similar to GA2) (data not shown).

O=C(O)CNC(=O)C(CS)Cc1ccccc1 (stereo not shown) [thiorphan]
pre-synaptic activity (FM dye uptake, automatic image quantification) (primary neurons): causes pre-synaptic hyperactivity

NC1=N[C@@]2(c3cc(NC(=O)c4ccc(F)cn4)ccc3F)COC[C@H]2CS1 [Ly2886721]
pathways decreased in AD #A5 after treatment (activation z-scores) (canonical pathways): restored

N=C(N)c1ccc(OCCCCCOc2ccc(C(=N)N)cc2)cc1 [pentamidine]
inhibition of pTau accumulation (primary screen hit status) (pTau [1]): top-3 hits

COc1nc(-c2cc(C)c(NC(C)c3ccc(F)cc3)nn2)ccc1-n1cnc(C)c1 (stereo not shown) [SGSM15606]
pathways decreased in AD #A5 after treatment (activation z-scores) (canonical pathways): restored

C/C(=C\c1ccc(C(=O)O)cc1)c1ccc2c(c1)C(C)(C)CCC2(C)C [TTNPB]
inhibition of pTau accumulation (primary screen hit status) (pTau [1]): primary hit

Oc1c(Cl)cc(Cl)c2cccnc12 [chloroxine]
inhibition of pTau in validation (pTau [2]): validated hits

Nc1ccc(-c2nc3ccc(-c4nc5ccc(N)cc5[nH]4)cc3[nH]2)cc1 [Ro90-7501]
inhibition of pTau accumulation (primary screen hit status) (pTau [1]): primary hits

ivermectin
inhibition of pTau accumulation (primary screen hit status) (pTau [1]): top-3 hits | inhibition of pTau accumulation (primary screen hit status) (pTau [1]; listed as Ivermectin): most significant phenotype

CC[N+](CC)(CC)CCOc1ccc(/C=C/c2ccccc2)cc1 [mg624]
inhibition of pTau accumulation (primary screen hit status) (pTau [1]): top-3 hits

C1CCC(C(CC2CCCCN2)C2CCCCC2)CC1 (stereo not shown) [Perhexiline, perhexiline maleate]
inhibition of pTau in validation (pTau [2]): successful predictions

Cc1oncc1C(=O)Nc1ccc(C(F)(F)F)cc1 [leflunomide]
insoluble p-tau species (pSer396/Ser404, pThr181) [3]: significantly decreased | p-tau (pSer396/Ser404) accumulation (p-tau (pSer396/Ser404)): robustly decreased | cellular viability and neurite networks (3D AD models): without affecting | pathways changed after treatment (genes and pathways; 5 of 6 pathways connected to 12 down-regulated genes): significantly down-regulated | genes with significant change versus control (genes and pathways; |log FC|>1.5, shared by both treatments): 15 down-regulated and 7 up-regulated genes
